Source: patent publication US9242960B2, “P38MAP kinase inhibitors” (Respivert Ltd., priority 2009, dated 2016)

How the values were obtained:
THP-1 cells = test: LPS-induced TNFα release in THP-1 cells; format: cell-based; details: Homo sapiens, read-out: IC50 Values LPS-induced TNFα release THP1 cells
Method: (§1) U937 cells, human monocytic cell line, were differentiated to macrophage-type cells by incubation with phorbol myristate acetate (PMA; 100 ng/ml) for 48 to 72 hr. Where appropriate, cells were pre-incubated with final concentrations of compound for 2 hr. Cells were then stimulated with 0.1 μg/ml of LPS (from E. Coli: O111:B4, Sigma) for 4 hr, and the supernatant collected for determination of TNFα concentration by sandwich ELISA (Duo-set, R&D systems). […] THP-1, human monocytic cell line, was also used for this assay. THP-1 cells were stimulated with 3 μg/ml of LPS (from E. Coli: O111:B4, Sigma) for 4 hr, and the supernatant collected for determination of TNFα concentration.

BEAS2B cells [1] = test: Rhinovirus-induced IL-8 release in BEAS2B cells; format: cell-based, human
BEAS2B cells [2] = test: Poly I:C-induced ICAM-1 induction in BEAS2B cells; format: cell-based, human; details: at 10 ug/ml
Method: Poly I:C (1 ug/ml) (Invivogen Ltd., San Diego, Calif.) was transfected into BEAS2B cells (human bronchial epithelial cells, ATCC) with Oligofectamine (Invitrogen, Carlsbad, Calif.). Cells were pre-incubated with final concentrations of compound for 2 hrs. The level of ICAM1 expression on the cell surface was determined by cell-based ELISA. Briefly, at 18 hrs after poly I:C transfection, cells were fixed with 4% formaldehyde in PBS. After quenching endogenous peroxidase by adding 0.1% sodium azide and 1% hydrogen peroxide, cells were washed with wash-buffer (0.1% Tween in PBS: PBS-Tween). After blocking the wells with 5% milk in PBS-Tween for 1 hr, the cells were incubated with anti-human ICAM-1 antibody (Cell Signaling Technology, Danvers, Mass.) in 1% BSA PBS overnight at 4° C. Cells were washed with PBS-Tween and incubated with the secondary antibody (HRP-conjugated anti-rabbit IgG, Dako Ltd., Glostrup, Denmark).

sputum macrophages = test: Sputum macrophage assay (LPS-induced IL-8 release); format: cell-based, human
[3] = system: Human rhinovirus RV16 (HRV); test: Rhinovirus-titre assay in MRC5 cells; format: cell-based; details: concentration range up to 1.9 μM
Method: All titrations were performed by infecting confluent Hela cell monolayers with serially diluted supernantant (10^−1 to 10^−5) and assessing cytopathetic effect by MTT assay 4 days after infection. The amount of virus required to infect 50% of Hela cells was calculated in each treatment as TCID50 U/mL. Compounds were added 24 and 2 hr before HRV infection and 1 hr after infection when non-infected HRV was washed out.

BEAS2B cells [4] = test: Rhinovirus-induced ICAM-1 expression in BEAS2B cells; format: cell-based, human
[5] = system: differentiated U937 cells; test: LPS-induced IL-8 release in differentiated U937 cells; format: cell-based, human
Method: U937 cells, human monocytic cell line, were differentiated to macrophage-type cells by incubation with phorbol myristate acetate (PMA; 100 ng/ml) for 48 to 72 hours. Cells were pre-incubated with final concentrations of compound for 2 hrs. Cells were then stimulated with 0.1 μg/ml of LPS (from E. Coli: O111:B4, Sigma) for 4 hrs, and the supernatant collected for determination of the IL-8 concentration by sandwich ELISA (Duo-set, R&D systems).

[6] = system: differentiated U937 cells; test: LPS-induced TNFα release in differentiated U937 cells; format: cell-based; details: Homo sapiens, U-937, read-out: IC50 Values LPS-induced TNFα release d-U937 cells
Method: as §1

[7] = system: neutrophil and macrophage accumulation into airways; test: Cigarette smoke model; format: in vivo, A/J mice; set-up: dose or concentration left out as unconfirmed; details: (35 μl, bid, in)
Method: A/J mice (males, 5 weeks old) were exposed to cigarette smoke (4% cigarette smoke, diluted with compressed air) for 30 min/day for 11 days using a Tobacco Smoke Inhalation Experiment System for small animals (Model SIS-CS; Sibata Scientific Technology, Tokyo, Japan). Test substances were given intra-nasally (35 μl of solution in 50% DMSO/PBS) and therapeutically twice daily for 3 days after the final cigarette smoke exposure. Twelve hours after the last dosing, animals were anesthetized, the trachea cannulated and bronchoalveolar lavage fluid (BALF) was collected. The numbers of alveolar macrophages and neutrophils were determined by FACS analysis (EPICS® ALTRA II, Beckman Coulter, Inc., Fullerton, Calif., USA) using anti-mouse MOMA2 antibody (macrophage) or anti-mouse 7/4 antibody (neutrophil).

[8] = system: bronchoconstrictor response to ovalbumin challenge (sGaw); test: Ovalbumin challenge/parainfluenza infection model; format: in vivo, guinea-pigs; details: 1.5 mg per day nebulised, sensitized animals treated with PIV3 medium (initial studies)

| SMILES | IC50 (THP-1 cells) [µM] | IC50 Values BEAS2B cells Rhinovirus-induced IL-8 release (BEAS2B cells [1]) | effect on poly I:C induced ICAM1 expression in BEAS2B cells (BEAS2B cells [2]) | IC50 Values Sputum macrophages LPS-induced IL-8 release (sputum macrophages) | effect on viral replication [3] | IC50 Values BEAS2B cells Rhinovirus-induced ICAM expression (BEAS2B cells [4]) | maximum inhibition of LPS-induced IL-8 release in differentiated U937 cells [5] [%] | IC50 [6] [µM] | macrophage accumulation into airways [7] | neutrophil accumulation into airways [7] | ovalbumin-mediated lung function changes [8] |
| --- | --- | --- | --- | --- | --- | --- | --- | --- | --- | --- | --- |
| Cc1ccc(-n2nc(C(C)(C)C)cc2NC(=O)Nc2ccc(OCCN3CCOCC3)c3ccccc23)cc1 [BIRB796] | 0.012 | NSE @ 1.9 μM | no effect | NSE @ 19 μM | without effect | NSE @ 1.9 μM | 31 | 0.02 |  |  |  |
| CCC(=O)O[C@]1(C(=O)SCF)[C@H](C)C[C@H]2[C@@H]3C[C@H](F)C4=CC(=O)C=C[C@]4(C)[C@@]3(F)[C@@H](O)C[C@@]21C [fluticasone propionate] |  |  |  |  |  |  |  |  | did not inhibit | did not inhibit | inhibited |
